This note sets out measurements from BindingDB's records for doi:10.1016/S1074-5521(02)00184-9 (The Scripps Research Institute, 2002).

Bounds are passed on as bounds.

Sequence of HIV-1 protease (O90785 whole entry): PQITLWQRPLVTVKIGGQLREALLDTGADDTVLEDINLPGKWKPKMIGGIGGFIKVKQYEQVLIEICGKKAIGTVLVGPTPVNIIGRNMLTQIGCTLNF

The experiment concerns the target HIV-1 protease (Human immunodeficiency virus, UniProt O90785). Kind of experiment: Inhibition Assay. Particulars: pH 5.6; 37 °C. From the text:
Inhibition of HIV-protease activity for selected acids at P3-P3' positions.
Usually IC50 stands for the midpoint of a concentration-inhibition curve. Low readings indicate higher potency, high ones lower potency. In turn, `CC(C)[C@H](NC(=O)c1ccc(-c2ccc(Cl)cc2)o1)C(=O)N[C@@H](Cc1ccccc1)[C@@H](O)[C@H](O)[C@H](Cc1ccccc1)NC(=O)[C@@H](NC(=O)c1ccc(-c2ccc(Cl)cc2)o1)C(C)C` [P3-P3' Entry 16] had an IC50 of 0.01 µM.

`CCC(C)[C@H](NC(=O)c1ccc2cccc(O)c2n1)C(=O)N[C@@H](Cc1ccccc1)[C@@H](O)[C@H](O)[C@H](Cc1ccccc1)NC(=O)[C@@H](NC(=O)c1ccc2cccc(O)c2n1)C(C)C` (stereo partly drawn) [P3-P3' Entry 5] gave an IC50 of more than 0.05 µM. In turn, `CC(C)[C@H](NC(=O)c1ccc2ccccc2n1)C(=O)N[C@@H](Cc1ccccc1)[C@@H](O)[C@H](O)[C@H](Cc1ccccc1)NC(=O)[C@@H](NC(=O)c1ccc2ccccc2n1)C(C)C` [P3-P3' Entry 6] showed an IC50 of 0.01 µM. The compound `CC(C)[C@H](NC(=O)Cc1c[nH]c2ccccc12)C(=O)N[C@@H](Cc1ccccc1)[C@@H](O)[C@H](O)[C@H](Cc1ccccc1)NC(=O)[C@@H](NC(=O)Cc1c[nH]c2ccccc12)C(C)C` [P3-P3' Entry 1] gave an IC50 of 0.017 µM. One may read the Ki as the dissociation constant of the complex between target and ligand, obtained from inhibition or displacement. Read a low Ki as a stronger hold on the target. Turning to `CC(C)[C@H](NC(=O)OCc1ccccc1)C(=O)N[C@@H](Cc1ccccc1)[C@@H](O)[C@H](O)[C@H](Cc1ccccc1)NC(=O)[C@@H](NC(=O)OCc1ccccc1)C(C)C`, the Ki came to 0.0015 µM. The compound `CC(C)[C@H](NC(=O)c1ccc(CN2CCOCC2)o1)C(=O)N[C@@H](Cc1ccccc1)[C@@H](O)[C@H](O)[C@H](Cc1ccccc1)NC(=O)[C@@H](NC(=O)c1ccc(CN2CCOCC2)o1)C(C)C` [P3-P3' Entry 15] registered a 50% inhibitory concentration (IC50) of more than 0.05 µM.

As to `CC(C)[C@H](NC(=O)COc1ccc2ccccc2c1)C(=O)N[C@@H](Cc1ccccc1)[C@@H](O)[C@H](O)[C@H](Cc1ccccc1)NC(=O)[C@@H](NC(=O)COc1ccc2ccccc2c1)C(C)C` [P3-P3' Entry 7], the half-inhibitory concentration (IC50) came to 0.01 µM. `CC(C)[C@H](NC(=O)CCc1c[nH]c2ccccc12)C(=O)N[C@@H](Cc1ccccc1)[C@@H](O)[C@H](O)[C@H](Cc1ccccc1)NC(=O)[C@@H](NC(=O)CCc1c[nH]c2ccccc12)C(C)C` [P3-P3' Entry 2] gave a half-inhibitory concentration (IC50) of 0.01 µM. Regarding `CC(C)[C@H](NC(=O)c1ccc(-c2ccc([N+](=O)[O-])cc2[N+](=O)[O-])o1)C(=O)N[C@@H](Cc1ccccc1)[C@@H](O)[C@H](O)[C@H](Cc1ccccc1)NC(=O)[C@@H](NC(=O)c1ccc(-c2ccc([N+](=O)[O-])cc2[N+](=O)[O-])o1)C(C)C` [P3-P3' Entry 12], the IC50 came to 0.01 µM.

`CC(C)[C@H](NC(=O)c1ccc([N+](=O)[O-])o1)C(=O)N[C@@H](Cc1ccccc1)[C@@H](O)[C@H](O)[C@H](Cc1ccccc1)NC(=O)[C@@H](NC(=O)c1ccc([N+](=O)[O-])o1)C(C)C` [P3-P3' Entry 9] yielded a concentration for half-maximal inhibition (IC50) of 0.02 µM. Still for that read-out and setting: the figure for `CC(C)[C@H](NC(=O)c1ccc(C(=O)c2ccccc2)o1)C(=O)N[C@@H](Cc1ccccc1)[C@@H](O)[C@H](O)[C@H](Cc1ccccc1)NC(=O)[C@@H](NC(=O)c1ccc(C(=O)c2ccccc2)o1)C(C)C` [P3-P3' Entry 13] is 0.01 µM; for `CC(C)[C@H](NC(=O)c1ccc(CN2CCCCC2)o1)C(=O)N[C@@H](Cc1ccccc1)[C@@H](O)[C@H](O)[C@H](Cc1ccccc1)NC(=O)[C@@H](NC(=O)c1ccc(CN2CCCCC2)o1)C(C)C` [P3-P3' Entry 14] it is more than 0.05 µM. Take `CC(C)[C@H](NC(=O)c1cc(O)c2ccccc2n1)C(=O)N[C@@H](Cc1ccccc1)[C@@H](O)[C@H](O)[C@H](Cc1ccccc1)NC(=O)[C@@H](NC(=O)c1cc(O)c2ccccc2n1)C(C)C` [P3-P3' Entry 4]: the IC50 came to 0.019 µM. Compound `CC(C)[C@H](NC(=O)c1ccc(-c2cc(C(F)(F)F)ccc2Cl)o1)C(=O)N[C@@H](Cc1ccccc1)[C@@H](O)[C@H](O)[C@H](Cc1ccccc1)NC(=O)[C@@H](NC(=O)c1ccc(-c2cc(C(F)(F)F)ccc2Cl)o1)C(C)C` [P3-P3' Entry 11] displayed an IC50 of more than 0.05 µM. Compound `CC(C)[C@H](NC(=O)c1ccc(-c2ccc([N+](=O)[O-])cc2)o1)C(=O)N[C@@H](Cc1ccccc1)[C@@H](O)[C@H](O)[C@H](Cc1ccccc1)NC(=O)[C@@H](NC(=O)c1ccc(-c2ccc([N+](=O)[O-])cc2)o1)C(C)C` [P3-P3' Entry 8] yielded a half-maximal inhibitory concentration (IC50) of 0.006 µM and a Ki of 0.002 µM. Compound `CC(C)[C@H](NC(=O)c1ccc(-c2c(Cl)cc([N+](=O)[O-])cc2Cl)o1)C(=O)N[C@@H](Cc1ccccc1)[C@@H](O)[C@H](O)[C@H](Cc1ccccc1)NC(=O)[C@@H](NC(=O)c1ccc(-c2c(Cl)cc([N+](=O)[O-])cc2Cl)o1)C(C)C` [P3-P3' Entry 10] came in with a half-inhibitory concentration (IC50) of more than 0.05 µM. On to `CC(C)[C@H](NC(=O)CCCc1c[nH]c2ccccc12)C(=O)N[C@@H](Cc1ccccc1)[C@@H](O)[C@H](O)[C@H](Cc1ccccc1)NC(=O)[C@@H](NC(=O)CCCc1c[nH]c2ccccc12)C(C)C` [P3-P3' Entry 3], for which inhibition was half-maximal at 0.014 µM (IC50).
